Reference: patent EP4741386A1 (Jiangsu Yahong Meditech Co., Ltd., priority 2023, dated 2025)

These compounds were tested against T1, Recombinant human His6-USP1/His6-UAF1 complex protein (Homo sapiens, UniProt O94782) (assay: In vitro inhibitory activity against USP1 (Ubiquitin Rhodamine 110 fluorescence detection, 384-well plate)). Conditions: Ub-Rho substrate, 1 hour pre-incubation, read after 30 minutes.
T1 construct: His6; purchased R&D E-568-050
Format: biochemical
Experimental: Test Example 1: In vitro inhibitory activity against USP1 […]
Experimental object: to screen compounds with inhibitory activity against USP1 […] by a fluorescence detection method, using a 384-well plate.
Experimental materials: Recombinant human His6-USP1/His6-UAF1 complex protein (R&D, Cat. No.: E-568-050), Ubiquitin Rhodamine 110 protein (Ub-Rho) (R&D, Cat. No.: U-555-050), 384-well plate (Perkin Elmer, Cat. No.: 6007279); all compounds were dissolved in 100% DMSO to obtain 50 mM stock solutions.
• 1) Preparation of 1 × assay buffer: 1 × assay buffer (modified Tris buffer) was prepared; • 2) Dilution of compounds: the compounds were transferred to an assay plate via Echo.

T1 sequence (O94782 whole entry): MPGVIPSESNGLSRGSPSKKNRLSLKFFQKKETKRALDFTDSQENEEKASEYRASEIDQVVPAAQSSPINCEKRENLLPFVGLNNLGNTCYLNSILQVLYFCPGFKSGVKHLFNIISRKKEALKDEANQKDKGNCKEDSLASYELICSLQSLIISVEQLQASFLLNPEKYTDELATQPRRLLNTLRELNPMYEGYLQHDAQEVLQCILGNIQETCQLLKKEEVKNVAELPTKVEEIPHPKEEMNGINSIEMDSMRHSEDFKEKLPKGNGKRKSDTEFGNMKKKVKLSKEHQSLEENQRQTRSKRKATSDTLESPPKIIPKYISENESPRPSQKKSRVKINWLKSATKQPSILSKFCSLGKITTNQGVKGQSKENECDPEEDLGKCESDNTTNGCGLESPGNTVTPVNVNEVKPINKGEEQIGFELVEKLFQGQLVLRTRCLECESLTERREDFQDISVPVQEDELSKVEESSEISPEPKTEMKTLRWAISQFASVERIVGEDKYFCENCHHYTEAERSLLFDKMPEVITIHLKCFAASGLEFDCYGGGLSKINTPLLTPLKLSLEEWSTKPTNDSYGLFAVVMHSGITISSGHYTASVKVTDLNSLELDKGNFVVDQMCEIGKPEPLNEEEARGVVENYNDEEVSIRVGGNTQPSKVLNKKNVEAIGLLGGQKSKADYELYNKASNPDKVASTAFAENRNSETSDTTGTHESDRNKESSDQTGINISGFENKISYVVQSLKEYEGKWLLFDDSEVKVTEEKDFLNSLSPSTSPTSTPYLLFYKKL
T1 sequence (Q8TAF3 whole entry partner): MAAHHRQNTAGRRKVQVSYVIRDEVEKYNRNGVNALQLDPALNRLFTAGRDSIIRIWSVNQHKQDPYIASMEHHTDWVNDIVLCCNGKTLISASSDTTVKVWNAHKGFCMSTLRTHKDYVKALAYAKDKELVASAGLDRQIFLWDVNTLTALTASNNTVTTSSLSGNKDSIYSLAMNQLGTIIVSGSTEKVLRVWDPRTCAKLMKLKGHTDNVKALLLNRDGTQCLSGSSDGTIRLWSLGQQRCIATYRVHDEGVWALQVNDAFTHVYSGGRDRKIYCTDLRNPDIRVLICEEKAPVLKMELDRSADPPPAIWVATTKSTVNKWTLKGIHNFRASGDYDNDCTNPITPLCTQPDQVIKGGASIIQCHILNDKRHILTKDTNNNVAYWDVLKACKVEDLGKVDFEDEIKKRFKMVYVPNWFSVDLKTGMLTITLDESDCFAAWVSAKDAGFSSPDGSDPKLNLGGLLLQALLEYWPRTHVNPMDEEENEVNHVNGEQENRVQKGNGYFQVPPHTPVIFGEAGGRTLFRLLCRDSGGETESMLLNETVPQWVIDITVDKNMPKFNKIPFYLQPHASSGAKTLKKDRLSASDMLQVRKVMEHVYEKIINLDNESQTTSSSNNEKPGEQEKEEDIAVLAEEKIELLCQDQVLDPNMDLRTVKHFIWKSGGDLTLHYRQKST

IC50	SMILES
26 nM	COc1cnc(-c2ccccc2C(C)C)nc1N(C)Cc1ccc(-c2ccccn2)cc1 [Example 1, 2-(2-isopropylphenyl)-5-methoxy-N-methyl-N-(4-(pyridin-2-yl)benzyl)pyrimidin-4-amine]
35 nM	COc1ncnc(C2CC2)c1-c1ncc2c(n1)N(Cc1ccc(-c3ccccn3)cc1)CCO2 [Example 9, 2-(4-Cyclopropyl-6-methoxypyrimidin-5-yl)-8-(4-(pyridin-2-yl)benzyl)-7,8-dihydro-6H-pyrimido[5,4-b][1,4]oxazine]
564 nM	COc1ncnc(C2CC2)c1-c1ncc2c(n1)N(CC1CCN(c3ccccn3)CC1)CCO2 [Example 10, 2-(4-Cyclopropyl-6-methoxypyrimidin-5-yl)-8-((1-(pyridin-2-yl)piperidin-4-yl)methyl)-7,8-dihydro-6H-pyrimido[5,4-b][1,4]oxazine]
1.9 nM	CC(C)c1ccccc1-c1ncc2c(n1)N(CC1CCC(c3nc(C(F)(F)F)cn3C)CC1)CCO2 [Example 13, 2-(2-Isopropylphenyl)-8-(((1R,4R)-4-(1-methyl-4-(trifluoromethyl)-1H-imidazol-2-yl)cyclohexyl)methyl)-7,8-dihydro-6H-pyrimido [5,4-b][1,4] oxazine]
60 nM	CC(C)c1ccccc1-c1ncc2c(n1)N(C[C@H]1CC[C@@H](c3nc(C(F)(F)F)cn3C)CC1)CCO2 [Example 14, 2-(2-Isopropylphenyl)-8-(((1s,4s)-4-(1-methyl-4-(trifluoromethyl)-1H-imidazol-2-yl)cyclohexyl)methyl)-7,8-dihydro-6H-pyrimido[5,4-b][1,4] oxazine]
30.6 nM	CC(C)c1ccccc1-c1ncc(C(F)(F)F)c(NCc2ccc(-c3ccccn3)cc2)n1 [Example 16, 2-(2-Isopropylphenyl)-N-(4-(pyridin-2-yl)benzyl)-5-(trifluoromethyl)pyrimidin-4-amine]
8.8 nM	CC(C)c1ccccc1-c1ncc2c(n1)N(CC1CCN(c3nc(C(F)(F)F)cn3C)CC1)C(=O)CO2 [Example 24, 2-(2-Isopropylphenyl)-8-((1-(1-methyl-4-(trifluoromethyl)-1H-imidazol-2-yl)piperidin-4-yl)methyl)-6H-pyrimido[5,4-b][1,4]oxazin-7(8H)-one]
3.7 nM	CC(C)c1ccccc1-c1ncc(C(F)(F)F)c(NCC2CCN(c3nc(C(F)(F)F)cn3C)CC2)n1 [Example 25, 2-(2-Isopropylphenyl)-N-((1-(1-methyl-4-(trifluoromethyl)-1H-imidazol-2-yl)piperidin-4-yl)methyl)-5-(trifluoromethyl)pyrimidin-4-amine]
4.8 nM	COc1cnc(-c2c(OC)ncnc2C2CC2)nc1NCc1ccc(-c2nc(C(F)(F)F)cn2C)cc1 [Example 29, 4'-Cyclopropyl-5,6'-dimethoxy-N-(4-(1-methyl-4-(trifluoromethyl)-1H-imidazol-2-yl)benzyl)-[2,5'-bipyrimidin]-4-amine]
37 nM	COc1ncnc(C2CC2)c1-c1ncc2c(n1)N(CC1CCN(c3nc(C(F)(F)F)cn3C)CC1)C(=O)CO2 [Example 30, 2-(4-Cyclopropyl-6-methoxypyrimidin-5-yl)-8-((1-(1-methyl-4-(trifluoromethyl)-1H-imidazol-2-yl)piperidin-4-yl)methyl)-6H-pyrimido[5,4-b][1,4]oxazin-7(8H)-one]
51 nM	COc1ncnc(C2CC2)c1-c1nc(NCc2ccc(-c3ccccn3)cc2)c2[nH]ccc2n1 [Example 37, 2-(4-Cyclopropyl-6-methoxypyrimidin-5-yl)-N-(4-(pyridin-2-yl)benzyl)-5H-pyrrolo[3,2-d]pyrimidin-4-amine]
1260 nM	COc1cnc(-c2ccccc2C(C)C)nc1NCc1ccc2c(c1)CN(C1CCC(=O)NC1=O)C2=O (stereo not shown) [Example 41, 3-(5-(((2-(2-Isopropylphenyl)-5-methoxypyrimidin-4-yl)amino)methyl)-1-oxoisoindolin-2-yl)piperidine-2,6-dione]
5.3 nM	COc1cnc(-c2ccccc2C(C)C)nc1NCc1ccc(OCc2ccccn2)cc1 [Example 67, 2-(2-Isopropylphenyl)-5-methoxy-N-(4-(pyridin-2-ylmethoxy)benzyl)pyrimidin-4-amine]
